By IC50 is commonly meant the concentration that gives 50% inhibition.

The source of these data is patent US20260085034A1, “N-(BENZHYDRYL)CYCLOALKYLCARBOXAMIDE DERIVATIVES AS INHIBITORS OF GLYCOGEN SYNTHASE 1 (GYS1) AND METHODS OF USE THEREOF” (Maze Therapeutics, Inc., priority 2022, published 2026).

Each structure is given as a SMILES string.

The target in this assay is T1, recombinant hGYS1/GN1 protein (Homo sapiens, UniProt P13807).
T1 sequence (P13807 1-737): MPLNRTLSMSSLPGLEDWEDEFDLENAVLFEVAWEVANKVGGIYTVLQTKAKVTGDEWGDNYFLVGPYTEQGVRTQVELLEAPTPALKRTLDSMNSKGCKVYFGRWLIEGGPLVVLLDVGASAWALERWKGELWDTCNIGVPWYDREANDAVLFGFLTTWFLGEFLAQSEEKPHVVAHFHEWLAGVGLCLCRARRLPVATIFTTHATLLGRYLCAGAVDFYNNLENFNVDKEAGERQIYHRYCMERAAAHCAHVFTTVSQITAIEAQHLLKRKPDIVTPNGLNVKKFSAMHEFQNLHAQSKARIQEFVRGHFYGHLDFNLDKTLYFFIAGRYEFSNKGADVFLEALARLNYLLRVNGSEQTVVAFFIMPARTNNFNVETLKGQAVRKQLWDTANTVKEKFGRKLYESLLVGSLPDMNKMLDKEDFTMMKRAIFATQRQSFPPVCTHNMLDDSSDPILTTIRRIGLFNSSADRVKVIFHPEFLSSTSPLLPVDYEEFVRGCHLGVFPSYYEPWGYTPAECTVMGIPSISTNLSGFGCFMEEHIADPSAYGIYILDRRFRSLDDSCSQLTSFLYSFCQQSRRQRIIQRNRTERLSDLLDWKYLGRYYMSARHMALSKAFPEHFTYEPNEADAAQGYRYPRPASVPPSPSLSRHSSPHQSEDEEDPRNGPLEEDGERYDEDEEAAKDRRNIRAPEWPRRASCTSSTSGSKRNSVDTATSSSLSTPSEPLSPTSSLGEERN
T1 sequence (P46976 1-350 partner): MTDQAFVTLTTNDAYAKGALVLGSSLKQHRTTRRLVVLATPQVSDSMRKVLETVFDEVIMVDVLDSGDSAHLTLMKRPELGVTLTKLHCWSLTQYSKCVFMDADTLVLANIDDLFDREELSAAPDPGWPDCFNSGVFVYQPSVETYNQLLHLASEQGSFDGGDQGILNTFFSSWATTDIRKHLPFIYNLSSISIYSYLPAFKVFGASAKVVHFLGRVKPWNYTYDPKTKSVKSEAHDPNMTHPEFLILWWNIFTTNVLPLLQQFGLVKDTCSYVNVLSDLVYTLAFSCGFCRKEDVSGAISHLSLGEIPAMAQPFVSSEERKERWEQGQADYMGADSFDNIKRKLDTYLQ
The assay is described as follows: GYS1 coupled enzyme assay (PK/LDH). Format: biochemical. Particulars: geometric mean of at least 2 assay runs; NADH absorbance at 340 nm. The source says:
The GYS1 coupled enzyme assay is a kinetic biochemical assay that indirectly quantifies the rate of glycogen synthesis by coupling the conversion of GYS1 substrate UDP-glucose into UDP with downstream enzymatic reactions. UDP is released from UDP-glucose as glucose monomers are linked into the growing glycogen strand by GYS1. The coupled assay then proceeds with pyruvate kinase utilizing UDP and phospho(enol)pyruvate (PEP) to form pyruvate. Lactate dehydrogenase then converts pyruvate and NADH into lactate and NAD+. Oxidation of NADH to NAD+ can be measured continuously with a plate reader by quantifying the decrease in NADH absorbance at 340 nm over time.
Compounds that inhibit the hGYS1 enzyme and, subsequently, the downstream conversion of NADH to NAD+, were tested using assay ready plates (black, clear bottom 384 well plates) in a final DMSO reaction volume of 2.5% DMSO. The Assay Buffer contained 50 mM Tris pH 7.5, 2 mM MgCl2, and 100 mM KCl. Fresh stocks of BSA at a final concentration of 0.02% and TCEP at 1 mM were added before splitting buffer into hGYS1 buffer and substrate buffer. To the hGYS1 buffer, rabbit liver glycogen was added at a final concentration of 0.2% glycogen. Glucose-6-Phosphate was added at 1 mM, recombinant hGYS1/GN1 protein was added at 50 nM to the substrate buffer, phosphoenolpyruvate (PEP) was added at 2 mM, UDP-Glucose was added at 0.8 mM, NADH) was added at 0.6 mM, and Pyruvate Kinase/Lactate Dehydrogenase was added at 20 units/mL. The reaction was initiated by mixing hGYS1 buffer and substrate buffer at a 1:1 ratio. Both buffers were plated using a liquid dispensing device with hGYS1 buffer plated first followed by the substrate buffer. Plates were spun briefly to eliminate air bubbles and are immediately read in continuous mode at an absorbance of 340 nm, for 10 time points in one-minute increments, for a total of 10 minutes. The slope from these 10 time points was normalized to the positive and negative control wells. The duplicate % inhibition values are then averaged and fit to a Hill equation for dose response according to the Levenberg-Marquardt algorithm with the Hill equation maximum set to 100 and the minimum set to 0.
The results are shown in Table 3 below, which reports the IC50 of each compound. Unless otherwise specified, IC50 values are reported as the geometric mean of at least 2 assay runs on separate days. Each run represents the average of a technical replicate, where each compound was assayed twice in the same plate. As shown in the table below, the compounds of the present invention are potent inhibitors of human GYS1.
Turning to `Cc1n[nH]cc1[C@H](NC(=O)C1CC1)c1ccc(C(C)C)cc1` (single isomer, unassigned) [compound 43], the IC50 amounted to 2440 nM.

For `CC(C)c1ccc([C@@H](NC(=O)C2CC2)c2ccccc2NC(=O)C2CN(CC3CC3)C2)cc1` [compound 25, (R)-N-(2-(cyclopropanecarboxamido(4-isopropylphenyl)methyl)phenyl)-1-(cyclopropylmethyl)azetidine-3-carboxamide], the IC50 was found to be 1140 nM. With `CC(C)c1ccc([C@@H](NC(=O)C2CC2)c2ccccc2NC(=O)[C@@H]2CCN2)cc1` [compound 49, (S)-N-(2-((R)-cyclopropanecarboxamido(4-isopropylphenyl)methyl)phenyl)azetidine-2-carboxamide] the figure was 1790 nM; with `COc1ccccc1[C@H](NC(=O)C1CC1)c1ccc(C(C)C)cn1` (single isomer, unassigned) [compound 33], 1420 nM; with `CC(C)c1ccc([C@@H](NC(=O)C2CC2)c2cccc3c2NC(=O)C3)cc1` (single isomer, unassigned) [compound 32], 2000 nM. The same measure for `Cc1ccccc1[C@H](NC(=O)[C@@H]1CCC[C@@H]1C(=O)NC#N)c1ccc(C(C)C)cc1` [compound 22, (1S,2R)-N^1-cyano-N^2-((R)-(4-isopropylphenyl)(o-tolyl)methyl)cyclopentane-1,2-dicarboxamide]: 1280 nM; for `NC(=O)Nc1ccccc1[C@H](NC(=O)C1CC1)c1ccc(C2CC2)cc1` (single isomer, unassigned) [compound 17]: 2220 nM. The same measure for `CC(=O)NCC(=O)N[C@H]1CCC[C@H]1C(=O)N[C@@H](c1ccccc1)c1ccc(C(C)C)cc1` [compound 21, (1R,2S)-2-(2-acetamidoacetamido)-N-((S)-(4-isopropylphenyl)(phenyl)methyl)cyclopentane-1-carboxamide]: 1530 nM. Consider `CC(=O)N[C@@H](CC(N)=O)C(=O)N[C@H]1CCC[C@H]1C(=O)N[C@@H](c1ccccc1)c1ccc(C(C)C)cc1` [compound 28, (S)-2-acetamido-N^1-((1S,2R)-2-(((S)-(4-isopropylphenyl)(phenyl)methyl)carbamoyl)cyclopentyl)succinamide], for which the IC50 is 2970 nM. With `CNC(=O)[C@H]1CCC[C@H]1C(=O)N[C@H](c1ccc(C(C)C)cc1)c1ccccc1C` [compound 16, (1R,2S)-N^1-((R)-(4-isopropylphenyl)(o-tolyl)methyl)-N^2-methylcyclopentane-1,2-dicarboxamide] the figure was 1740 nM. Regarding `COCCN1CC(C(=O)Nc2ccccc2[C@H](NC(=O)C2CC2)c2ccc(C(C)C)cc2)C1` [compound 24, (R)-N-(2-(cyclopropanecarboxamido(4-isopropylphenyl)methyl)phenyl)-1-(2-methoxyethyl)azetidine-3-carboxamide], the IC50 came out at 1200 nM. With `CC(C)c1ccc([C@@H](NC(=O)C2CC2)c2ccccc2Nc2ncco2)cc1` (single isomer, unassigned) [compound 31] the figure was 1220 nM; with `O=C(N[C@@H](c1ccccc1)c1ccc(C2CCC2)cc1)C1CC1` [compound 40, (S)-N-((4-cyclobutylphenyl)(phenyl)methyl)cyclopropanecarboxamide], 1330 nM; with `CC(C)c1ccc([C@@H](NC(=O)C2CC2)c2ccccc2NC2NC(=O)N(C)C2=O)cc1` (stereo partly drawn) [compound 8, N-((1R)-(4-isopropylphenyl)(2-((1-methyl-2,5-dioxoimidazolidin-4-yl)amino)phenyl)methyl)cyclopropanecarboxamide], 295 nM. The same measure for `CC(=O)N1CC[C@H]1C(=O)Nc1ccccc1[C@H](NC(=O)C1CC1)c1ccc(C(C)C)cc1` [compound 42, (S)-1-acetyl-N-(2-((R)-cyclopropanecarboxamido(4-isopropylphenyl)methyl)phenyl)azetidine-2-carboxamide]: 1480 nM. Turning to `CC(C)c1ccc([C@@H](NC(=O)[C@@H]2CCC[C@@H]2NC(N)=O)c2ccccc2)cc1` [compound 38, (1R,2S)-N-((S)-(4-isopropylphenyl)(phenyl)methyl)-2-ureidocyclopentane-1-carboxamide], the IC50 is 1920 nM. With `CC(C)c1ccc([C@@H](NC(=O)[C@H]2CCC(F)C2)c2ccccc2)cc1` (stereo partly drawn) [compound 34, (1S)-3-fluoro-N-((S)-(4-isopropylphenyl)(phenyl)methyl)cyclopentane-1-carboxamide] the figure was 778 nM; with `CC(C)c1ccc([C@@H](NC(=O)C2CC2)c2ccccc2NC(=O)C2CN(CC(F)(F)F)C2)cc1` [compound 23, (R)-N-(2-(cyclopropanecarboxamido(4-isopropylphenyl)methyl)phenyl)-1-(2,2,2-trifluoroethyl)azetidine-3-carboxamide], 1210 nM. With `Cc1ccccc1[C@H](NC(=O)[C@@H]1CCC[C@@H]1C(N)=O)c1ccc(C(C)C)cc1` [compound 30, (1R,2S)-N^1-((R)-(4-isopropylphenyl)(o-tolyl)methyl)cyclopentane-1,2-dicarboxamide] the figure was 1390 nM; with `COC(=O)CCNC(=O)[C@H]1CCC[C@H]1C(=O)N[C@H](c1ccc(C(C)C)cc1)c1ccccc1C` [compound 20, methyl 3-((1S,2R)-2-(((R)-(4-isopropylphenyl)(o-tolyl)methyl)carbamoyl)cyclopentane-1-carboxamido)propanoate], 2980 nM; with `CC(C)c1ccc([C@@H](NC(=O)C2CC2)c2ccccc2)nc1` [compound 45, (S)-N-((5-isopropylpyridin-2-yl)(phenyl)methyl)cyclopropanecarboxamide], 2490 nM. Regarding `CC(C)c1ccc([C@@H](NC(=O)[C@H]2C[C@@H]2F)c2ccccc2NC(=O)C2CCN(C)CC2)cc1` [compound 12, N-(2-((R)-((1R,2S)-2-fluorocyclopropane-1-carboxamido)(4-isopropylphenyl)methyl)phenyl)-1-methylpiperidine-4-carboxamide], the IC50 came out at 1640 nM. The same measure for `CC(C)c1ccc([C@@H](NC(=O)C2CC2)c2ccccc2NC(=O)[C@H]2CCN2)cc1` [compound 50, (R)-N-(2-((R)-cyclopropanecarboxamido(4-isopropylphenyl)methyl)phenyl)azetidine-2-carboxamide]: 1790 nM. With `CC(C)c1ccc([C@@H](NC(=O)[C@H]2CCC(O)C2)c2ccccc2)cc1` (stereo partly drawn) [compound 35, (1S)-3-hydroxy-N-((S)-(4-isopropylphenyl)(phenyl)methyl)cyclopentane-1-carboxamide] the figure was 1130 nM.

Regarding `Cc1ccccc1[C@H](NC(=O)C1CC1)c1ccc(C(C)C)cn1` (single isomer, unassigned) [compound 47], the IC50 turned out to be 1810 nM. With `CC(=O)N[C@H]1CCC[C@H]1C(=O)N[C@@H](c1ccccc1)c1ccc(C(C)C)cc1` [compound 55, (1R,2S)-2-acetamido-N-((S)-(4-isopropylphenyl)(phenyl)methyl)cyclopentane-1-carboxamide] the figure was 2420 nM.
